In the kinase profiling compilation of Christmann-Franck et al. (2016):

Columns and labels:
Assay in all cases: KINOMEscan competition binding
Conditions in all cases: compound 1.0 µM
ACVR1B (human) = ACVR1B (human) (UniProt P36896)
AKT3 (human) = AKT3 (human) (UniProt Q9Y243)
ALK (human) = ALK (human) (UniProt Q9UM73)
ANKK1 (human) = ANKK1 (human) (UniProt Q8NFD2)
CAMK2D (human) = CAMK2D (human) (UniProt Q13557)
CDK19 (human) = CDK19 (human) (UniProt Q9BWU1)
CLK4 (human) = CLK4 (human) (UniProt Q9HAZ1)
CLK4 (human), sequence (Q9HAZ1 whole entry, looked up): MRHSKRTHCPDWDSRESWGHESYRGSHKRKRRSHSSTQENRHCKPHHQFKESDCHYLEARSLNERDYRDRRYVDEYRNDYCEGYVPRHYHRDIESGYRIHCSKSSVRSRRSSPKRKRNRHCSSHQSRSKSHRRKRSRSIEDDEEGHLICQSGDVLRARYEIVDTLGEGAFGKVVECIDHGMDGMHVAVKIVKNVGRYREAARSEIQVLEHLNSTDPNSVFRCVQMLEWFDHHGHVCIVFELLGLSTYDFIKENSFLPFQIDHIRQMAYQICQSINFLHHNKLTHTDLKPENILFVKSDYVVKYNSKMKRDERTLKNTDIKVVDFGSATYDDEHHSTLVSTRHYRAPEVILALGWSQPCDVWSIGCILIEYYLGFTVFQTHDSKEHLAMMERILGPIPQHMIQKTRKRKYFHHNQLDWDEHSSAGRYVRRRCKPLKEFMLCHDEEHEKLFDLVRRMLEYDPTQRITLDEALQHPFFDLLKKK

CSK (human) = CSK (human) (UniProt P41240)
CSK (human), sequence (P41240 whole entry, looked up): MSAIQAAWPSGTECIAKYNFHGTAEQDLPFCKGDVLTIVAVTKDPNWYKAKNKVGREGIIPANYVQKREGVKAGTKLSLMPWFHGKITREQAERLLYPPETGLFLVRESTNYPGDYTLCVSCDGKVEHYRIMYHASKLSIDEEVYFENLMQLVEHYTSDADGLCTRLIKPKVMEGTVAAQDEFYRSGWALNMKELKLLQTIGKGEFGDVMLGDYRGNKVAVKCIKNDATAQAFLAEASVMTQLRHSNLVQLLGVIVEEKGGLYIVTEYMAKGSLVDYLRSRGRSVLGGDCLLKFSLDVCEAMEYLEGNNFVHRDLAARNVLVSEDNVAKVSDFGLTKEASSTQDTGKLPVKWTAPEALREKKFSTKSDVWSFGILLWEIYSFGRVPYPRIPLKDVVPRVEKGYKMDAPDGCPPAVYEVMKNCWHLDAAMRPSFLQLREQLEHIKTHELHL

DSTYK (human) = DSTYK (human) (UniProt Q6XUX3)
[1] = system: EGFR (human), P00533 [G719S]
EPHA5 (human) = EPHA5 (human) (UniProt P54756)
FGFR3 (human) = FGFR3 (human) (UniProt P22607)
[2] = system: FLT3 (human), P36888 [N841I]
GAK (human) = GAK (human) (UniProt O14976)
HIPK4 (human) = HIPK4 (human) (UniProt Q8NE63)
INSR (human) = INSR (human) (UniProt P06213)
LATS2 (human) = LATS2 (human) (UniProt Q9NRM7)
LTK (human) = LTK (human) (UniProt P29376)
MAK (human) = MAK (human) (UniProt P20794)
MAP2K1 (human) = MAP2K1 (human) (UniProt Q02750)
MAP2K5 (human) = MAP2K5 (human) (UniProt Q13163)
MAPK14 (human) = MAPK14 (human) (UniProt Q16539)
MARK2 (human) = MARK2 (human) (UniProt Q7KZI7)
MAST1 (human) = MAST1 (human) (UniProt Q9Y2H9)
MLTK (human) = MLTK (human) (UniProt Q9NYL2)
NEK2 (human) = NEK2 (human) (UniProt P51955)
NEK3 (human) = NEK3 (human) (UniProt P51956)
NEK3 (human), sequence (P51956 whole entry, looked up): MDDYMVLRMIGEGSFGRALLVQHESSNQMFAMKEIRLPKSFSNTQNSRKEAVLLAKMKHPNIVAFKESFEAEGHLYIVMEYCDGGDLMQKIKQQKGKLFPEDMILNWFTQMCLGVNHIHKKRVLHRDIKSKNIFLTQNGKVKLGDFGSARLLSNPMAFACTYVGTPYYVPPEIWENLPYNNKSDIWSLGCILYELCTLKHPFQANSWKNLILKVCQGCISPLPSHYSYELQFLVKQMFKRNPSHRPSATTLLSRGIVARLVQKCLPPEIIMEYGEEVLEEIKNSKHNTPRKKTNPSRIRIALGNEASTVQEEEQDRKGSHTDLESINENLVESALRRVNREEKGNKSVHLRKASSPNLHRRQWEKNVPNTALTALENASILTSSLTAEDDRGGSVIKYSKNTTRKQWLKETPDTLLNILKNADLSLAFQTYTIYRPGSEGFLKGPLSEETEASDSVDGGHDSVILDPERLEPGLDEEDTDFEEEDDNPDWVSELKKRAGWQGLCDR

[3] = system: PIK3CA (human), P42336 [H1047L]
PIK3CA (human), P42336 [H1047L], sequence (P42336 whole entry H1047L, looked up): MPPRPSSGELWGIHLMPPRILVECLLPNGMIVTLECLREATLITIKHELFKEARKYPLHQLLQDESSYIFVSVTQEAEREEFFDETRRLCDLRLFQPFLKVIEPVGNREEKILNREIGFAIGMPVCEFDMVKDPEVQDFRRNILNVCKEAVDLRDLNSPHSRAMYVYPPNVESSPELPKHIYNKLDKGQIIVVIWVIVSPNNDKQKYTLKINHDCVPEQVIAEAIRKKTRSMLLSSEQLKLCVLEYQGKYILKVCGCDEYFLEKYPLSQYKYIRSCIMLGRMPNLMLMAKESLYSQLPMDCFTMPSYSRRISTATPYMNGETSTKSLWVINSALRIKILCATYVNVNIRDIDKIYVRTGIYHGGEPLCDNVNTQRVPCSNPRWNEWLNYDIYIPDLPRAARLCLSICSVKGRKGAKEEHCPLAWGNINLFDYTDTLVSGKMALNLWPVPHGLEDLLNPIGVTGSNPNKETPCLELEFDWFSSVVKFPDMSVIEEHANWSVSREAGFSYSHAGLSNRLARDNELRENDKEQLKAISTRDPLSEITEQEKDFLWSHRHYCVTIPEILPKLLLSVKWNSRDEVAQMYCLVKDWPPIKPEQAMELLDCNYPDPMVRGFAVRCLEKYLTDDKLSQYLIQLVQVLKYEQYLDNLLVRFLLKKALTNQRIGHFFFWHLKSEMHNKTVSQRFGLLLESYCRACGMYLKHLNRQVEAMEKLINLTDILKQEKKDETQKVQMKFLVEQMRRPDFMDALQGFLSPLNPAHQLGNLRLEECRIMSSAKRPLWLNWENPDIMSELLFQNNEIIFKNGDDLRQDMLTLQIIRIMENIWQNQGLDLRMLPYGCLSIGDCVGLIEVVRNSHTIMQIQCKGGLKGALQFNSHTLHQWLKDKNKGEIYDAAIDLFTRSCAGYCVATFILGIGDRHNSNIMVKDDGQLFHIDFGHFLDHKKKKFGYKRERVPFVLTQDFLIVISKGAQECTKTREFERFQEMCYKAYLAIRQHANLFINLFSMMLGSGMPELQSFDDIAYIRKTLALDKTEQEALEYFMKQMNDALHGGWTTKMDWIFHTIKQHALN

[4] = system: PIK3CA (human), P42336 [H1047Y]
PIK3CA (human), P42336 [H1047Y], sequence (P42336 whole entry H1047Y, looked up): as the sequence (P42336 whole entry H1047L, looked up) above, with L1047Y counted along it

PIK3CB (human) = PIK3CB (human) (UniProt P42338)
PIP5K1C (human) = PIP5K1C (human) (UniProt O60331)
PIP5K1C (human), sequence (O60331 whole entry, looked up): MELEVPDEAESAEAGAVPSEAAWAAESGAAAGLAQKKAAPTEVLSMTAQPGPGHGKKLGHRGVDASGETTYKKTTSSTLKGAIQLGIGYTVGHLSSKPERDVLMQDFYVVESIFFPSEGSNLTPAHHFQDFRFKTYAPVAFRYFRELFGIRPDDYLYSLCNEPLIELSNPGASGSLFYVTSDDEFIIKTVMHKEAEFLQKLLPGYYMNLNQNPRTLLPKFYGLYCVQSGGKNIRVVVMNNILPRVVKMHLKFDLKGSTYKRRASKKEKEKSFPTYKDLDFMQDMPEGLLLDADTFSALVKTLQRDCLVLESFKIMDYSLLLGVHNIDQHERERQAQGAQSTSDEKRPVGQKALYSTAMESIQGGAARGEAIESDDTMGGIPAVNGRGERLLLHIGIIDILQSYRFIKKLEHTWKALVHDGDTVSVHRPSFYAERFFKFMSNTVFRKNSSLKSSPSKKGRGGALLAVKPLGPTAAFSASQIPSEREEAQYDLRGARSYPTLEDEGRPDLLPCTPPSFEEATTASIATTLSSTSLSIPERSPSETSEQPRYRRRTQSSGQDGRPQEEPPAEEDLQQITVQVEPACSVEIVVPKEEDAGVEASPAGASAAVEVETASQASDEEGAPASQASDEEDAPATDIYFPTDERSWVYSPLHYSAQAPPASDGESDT

PKN1 (human) = PKN1 (human) (UniProt Q16512)
PRKCI (human) = PRKCI (human) (UniProt P41743)
PRKD2 (human) = PRKD2 (human) (UniProt Q9BZL6)
ROCK1 (human) = ROCK1 (human) (UniProt Q13464)
ROCK1 (human), sequence (Q13464 whole entry, looked up): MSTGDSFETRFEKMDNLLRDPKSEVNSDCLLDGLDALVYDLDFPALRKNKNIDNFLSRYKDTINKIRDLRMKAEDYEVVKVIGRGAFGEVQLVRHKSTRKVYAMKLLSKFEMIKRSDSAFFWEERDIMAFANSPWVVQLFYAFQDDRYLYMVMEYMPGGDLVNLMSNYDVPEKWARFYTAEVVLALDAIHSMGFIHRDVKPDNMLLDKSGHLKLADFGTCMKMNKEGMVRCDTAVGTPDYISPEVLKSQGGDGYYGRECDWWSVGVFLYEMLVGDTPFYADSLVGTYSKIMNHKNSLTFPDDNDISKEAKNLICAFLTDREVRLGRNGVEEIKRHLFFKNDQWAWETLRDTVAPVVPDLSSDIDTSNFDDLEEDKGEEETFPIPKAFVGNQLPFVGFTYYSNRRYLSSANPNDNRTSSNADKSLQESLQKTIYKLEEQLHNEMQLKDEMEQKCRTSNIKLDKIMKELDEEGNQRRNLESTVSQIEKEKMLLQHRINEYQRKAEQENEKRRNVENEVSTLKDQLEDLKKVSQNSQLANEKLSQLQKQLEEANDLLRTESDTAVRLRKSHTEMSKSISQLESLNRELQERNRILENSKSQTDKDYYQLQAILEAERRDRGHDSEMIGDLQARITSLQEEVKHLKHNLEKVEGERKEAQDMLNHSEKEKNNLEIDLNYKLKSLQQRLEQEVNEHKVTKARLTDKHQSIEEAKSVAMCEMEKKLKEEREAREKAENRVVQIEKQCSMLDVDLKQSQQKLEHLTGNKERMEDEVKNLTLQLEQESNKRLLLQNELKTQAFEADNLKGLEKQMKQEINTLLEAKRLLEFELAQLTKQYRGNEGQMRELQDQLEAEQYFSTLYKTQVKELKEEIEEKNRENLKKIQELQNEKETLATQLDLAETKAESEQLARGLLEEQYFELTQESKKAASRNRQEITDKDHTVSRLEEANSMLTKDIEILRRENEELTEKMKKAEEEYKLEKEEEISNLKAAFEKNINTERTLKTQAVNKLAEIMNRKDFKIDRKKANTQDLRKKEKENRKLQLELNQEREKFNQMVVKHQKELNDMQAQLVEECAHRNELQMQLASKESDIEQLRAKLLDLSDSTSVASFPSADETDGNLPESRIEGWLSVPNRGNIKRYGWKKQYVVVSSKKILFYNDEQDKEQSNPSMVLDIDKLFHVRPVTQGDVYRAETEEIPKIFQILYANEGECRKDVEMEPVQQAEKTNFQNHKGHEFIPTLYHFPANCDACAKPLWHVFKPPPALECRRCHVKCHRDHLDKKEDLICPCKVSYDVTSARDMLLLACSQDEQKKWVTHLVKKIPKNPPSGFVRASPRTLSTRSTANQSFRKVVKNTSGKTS

RPS6KA2 KD1 (human) = RPS6KA2 KD1 (human) (UniProt Q15349)
RPS6KA5 KD1 (human) = RPS6KA5 KD1 (human) (UniProt O75582)
TEK (human) = TEK (human) (UniProt Q02763)
TESK1 (human) = TESK1 (human) (UniProt Q15569)
TNK1 (human) = TNK1 (human) (UniProt Q13470)
TNK2 (human) = TNK2 (human) (UniProt Q07912)

CAMK2D (human), sequence (Q13557 whole entry, looked up): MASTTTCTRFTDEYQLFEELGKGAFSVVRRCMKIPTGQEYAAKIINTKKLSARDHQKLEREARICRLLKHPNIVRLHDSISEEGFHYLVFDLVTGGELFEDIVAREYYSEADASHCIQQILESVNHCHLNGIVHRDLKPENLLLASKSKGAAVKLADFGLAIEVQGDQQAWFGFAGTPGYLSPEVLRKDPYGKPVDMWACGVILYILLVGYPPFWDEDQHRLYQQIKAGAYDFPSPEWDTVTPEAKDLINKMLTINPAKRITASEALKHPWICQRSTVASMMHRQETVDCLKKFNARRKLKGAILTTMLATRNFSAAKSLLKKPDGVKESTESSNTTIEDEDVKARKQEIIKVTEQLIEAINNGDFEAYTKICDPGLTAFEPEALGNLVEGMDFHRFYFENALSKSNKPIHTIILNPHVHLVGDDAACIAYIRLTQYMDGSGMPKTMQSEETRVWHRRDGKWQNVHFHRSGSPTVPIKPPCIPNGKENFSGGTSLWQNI

Work on COCCNCCCn1c(C(=O)CF)c(-c2ccc(C)cc2)c2c(N)ncnc21 yielded a kinase still bound, per cent of control (ACVR1B (human)) of 91%, a kinase still bound, per cent of control (AKT3 (human)) of 86% and a kinase still bound, per cent of control (ALK (human)) of 71%. It also gave a kinase still bound, per cent of control (ANKK1 (human)) of 100%, a kinase still bound, per cent of control (CAMK2D (human)) of 82% and a kinase still bound, per cent of control (CDK19 (human)) of 98%. For the same compound, the kinase still bound, per cent of control (CLK4 (human)) was 91%, the kinase still bound, per cent of control (CSK (human)) was 95% and the kinase still bound, per cent of control (DSTYK (human)) was 100%. For the same compound, the kinase still bound, per cent of control [1] was 90%, the kinase still bound, per cent of control (EPHA5 (human)) was 91% and the kinase still bound, per cent of control (FGFR3 (human)) was 92%. It also gave a kinase still bound, per cent of control [2] of 65%, a kinase still bound, per cent of control (GAK (human)) of 100% and a kinase still bound, per cent of control (HIPK4 (human)) of 95%. For the same compound, the kinase still bound, per cent of control (INSR (human)) was 84%, the kinase still bound, per cent of control (LATS2 (human)) was 100% and the kinase still bound, per cent of control (LTK (human)) was 100%. The kinase still bound, per cent of control (MAK (human)) was 95%, the kinase still bound, per cent of control (MAP2K1 (human)) was 100% and the kinase still bound, per cent of control (MAP2K5 (human)) was 46%. It also gave a kinase still bound, per cent of control (MAPK14 (human)) of 96%, a kinase still bound, per cent of control (MARK2 (human)) of 81% and a kinase still bound, per cent of control (MAST1 (human)) of 83%. The kinase still bound, per cent of control (MLTK (human)) was 100%, the kinase still bound, per cent of control (NEK2 (human)) was 98% and the kinase still bound, per cent of control (NEK3 (human)) was 70%. For the same compound, the kinase still bound, per cent of control [3] was 100%, the kinase still bound, per cent of control [4] was 100% and the kinase still bound, per cent of control (PIK3CB (human)) was 89%. It also gave a kinase still bound, per cent of control (PIP5K1C (human)) of 100%, a kinase still bound, per cent of control (PKN1 (human)) of 100% and a kinase still bound, per cent of control (PRKCI (human)) of 75%. The kinase still bound, per cent of control (PRKD2 (human)) was 100%, the kinase still bound, per cent of control (ROCK1 (human)) was 98% and the kinase still bound, per cent of control (RPS6KA2 KD1 (human)) was 83%. For the same compound, the kinase still bound, per cent of control (RPS6KA5 KD1 (human)) was 79%, the kinase still bound, per cent of control (TEK (human)) was 100% and the kinase still bound, per cent of control (TESK1 (human)) was 100%. For the same compound, the kinase still bound, per cent of control (TNK1 (human)) was 100% and the kinase still bound, per cent of control (TNK2 (human)) was 100%.
